Reference: patent US5858972A, “Antithrombotic agents and methods of use” (La Jolla Cancer Research Foundation, priority 1996, dated 1999)
In brackets after ≈: the same amount, converted by molar mass. Where a SMILES comes first, the peptide text is derived from it. Bridges are numbered along the chain shown (N, C = ends). [ ]: non-standard residue; d: D form. Nle = CCCC[C@H](N)C(=O)O

Tests used:
[1] = tested on: platelets (platelet-rich plasma); test: ADP-induced platelet aggregation in citrated platelet-rich plasma (low Ca2+); assay type: cell-based; settings: human PRP, 10 μM ADP; for IC50, platelet aggregation in citrated plasma: citrated plasma (about 0.18 mM free Ca2+), 37° C.
From the text: (§1) This example provides platelet aggregation studies for various peptides of the present invention. The studies compare the effect of the peptide on aggregation in both citrated and heparinized plasma. Because citrate is a chelating agent for calcium ions, the citrated plasma has a low calcium concentration as is characteristic of a clot site. In contrast, heparinized plasma has a calcium concentration similar to that of physiological conditions elsewhere in the blood stream.
(§2) Whole blood was drawn by a licensed phlebotomist from the antecubital vein using a 21 gauge butterfly infusion set and syringe from normal human volunteers. Platelet-rich plasma (PRP) was prepared by centrifuging heparinized (20 Units lithium porcine mucosa heparin/ml whole blood) or citrated (0.38% sodium citrate) whole blood for 12 min. at 200 relative centrifugal force (RCF). Platelet-poor plasma (PPP) is prepared by centrifuging PRP at 750 RCF for 12 min. and collecting the supernatant. Blood cell counts were performed using a Serano Baker automated cell counter. PRP platelet counts were adjusted to 200,000/μl by dilution with PPP. Final plasma free Ca+^2 concentrations were approximately 0.18 mM for citrated plasma and 2.3 mM for heparinized plasma. Platelet aggregation was determined spectrophotometrically utilizing a four channel aggregometer (Chrono-Log 570) by measuring the increase of light transmission through a stirred suspension of PRP maintained at 37° C. Dilutions of the peptides were added to the suspensions and aggregation induced with 10 μM adenosine diphosphate (ADP). Values were expressed as percentage of aggregation in the absence of peptides. This represents the percentage of light transmission standardized to PRP and PPP samples yielding 0% and 100% light transmission respectively.
(§3) Peptide anti-aggregation potencies were determined from dose-responsive curves for the inhibition of the maximum aggregation responses stimulated by high doses of ADP (10 μm). The 50% inhibitory concentration of each peptide (IC50) was determined by regression analysis of these curves.

[2] = molecular target: T1, GP-IIb/IIIa (Homo sapiens, UniProt P05106+P08514); test: Platelet aggregation in citrated (low Ca2+) versus heparinized (physiological Ca2+) plasma: apparent affinity for GP-IIb/IIIa; assay type: cell-based; settings: 10 μM ADP; for difference in apparent binding affinity for GP-IIb/IIIa at low (citrate) versus higher (heparin) calcium concentration, in words: citrated vs heparinized plasma; for increase (separation) in apparent affinity for GP-IIb/IIIa in low calcium concentration as compared to physiological calcium concentration: citrated plasma (about 0.18 mM Ca2+) vs heparinized plasma (2.3 mM Ca2+)
T1 construct: Platelet-rich plasma (PRP) was prepared by centrifuging heparinized; endogenous in cells; host or cells: human platelets in platelet-rich plasma (citrated or heparinized) from normal volunteers
From the text: as §1, §2, §3

T1 sequence (P08514 32-887 limits assumed): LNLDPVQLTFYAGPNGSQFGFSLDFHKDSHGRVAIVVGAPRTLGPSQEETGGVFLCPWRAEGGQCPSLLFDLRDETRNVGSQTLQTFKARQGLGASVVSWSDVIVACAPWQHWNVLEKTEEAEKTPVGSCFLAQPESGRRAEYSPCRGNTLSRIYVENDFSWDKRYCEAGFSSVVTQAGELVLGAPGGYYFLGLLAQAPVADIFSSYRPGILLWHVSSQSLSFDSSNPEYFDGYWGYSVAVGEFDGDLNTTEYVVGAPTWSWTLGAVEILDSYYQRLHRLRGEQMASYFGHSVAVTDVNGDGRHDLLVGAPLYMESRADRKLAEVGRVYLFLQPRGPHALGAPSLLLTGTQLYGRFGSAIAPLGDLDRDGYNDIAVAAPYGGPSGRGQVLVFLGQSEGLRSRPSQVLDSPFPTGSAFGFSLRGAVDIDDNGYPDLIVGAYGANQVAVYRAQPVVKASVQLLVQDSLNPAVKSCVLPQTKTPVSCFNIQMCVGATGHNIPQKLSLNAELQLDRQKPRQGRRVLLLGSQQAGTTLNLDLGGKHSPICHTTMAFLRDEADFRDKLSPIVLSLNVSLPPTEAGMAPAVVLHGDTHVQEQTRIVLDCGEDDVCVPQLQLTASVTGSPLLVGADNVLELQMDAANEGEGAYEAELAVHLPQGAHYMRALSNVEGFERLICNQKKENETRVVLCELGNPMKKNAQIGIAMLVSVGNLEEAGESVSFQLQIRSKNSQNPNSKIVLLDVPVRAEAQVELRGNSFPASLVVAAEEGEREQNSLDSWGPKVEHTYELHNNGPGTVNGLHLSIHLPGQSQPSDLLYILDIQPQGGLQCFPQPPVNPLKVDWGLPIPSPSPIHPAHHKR
T1 sequence (P08514 891-1039 partner limits assumed): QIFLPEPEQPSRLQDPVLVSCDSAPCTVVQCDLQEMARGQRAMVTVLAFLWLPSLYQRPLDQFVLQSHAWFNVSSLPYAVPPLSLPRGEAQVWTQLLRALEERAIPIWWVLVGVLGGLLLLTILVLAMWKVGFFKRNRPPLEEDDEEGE
T1 sequence (P05106 27-788): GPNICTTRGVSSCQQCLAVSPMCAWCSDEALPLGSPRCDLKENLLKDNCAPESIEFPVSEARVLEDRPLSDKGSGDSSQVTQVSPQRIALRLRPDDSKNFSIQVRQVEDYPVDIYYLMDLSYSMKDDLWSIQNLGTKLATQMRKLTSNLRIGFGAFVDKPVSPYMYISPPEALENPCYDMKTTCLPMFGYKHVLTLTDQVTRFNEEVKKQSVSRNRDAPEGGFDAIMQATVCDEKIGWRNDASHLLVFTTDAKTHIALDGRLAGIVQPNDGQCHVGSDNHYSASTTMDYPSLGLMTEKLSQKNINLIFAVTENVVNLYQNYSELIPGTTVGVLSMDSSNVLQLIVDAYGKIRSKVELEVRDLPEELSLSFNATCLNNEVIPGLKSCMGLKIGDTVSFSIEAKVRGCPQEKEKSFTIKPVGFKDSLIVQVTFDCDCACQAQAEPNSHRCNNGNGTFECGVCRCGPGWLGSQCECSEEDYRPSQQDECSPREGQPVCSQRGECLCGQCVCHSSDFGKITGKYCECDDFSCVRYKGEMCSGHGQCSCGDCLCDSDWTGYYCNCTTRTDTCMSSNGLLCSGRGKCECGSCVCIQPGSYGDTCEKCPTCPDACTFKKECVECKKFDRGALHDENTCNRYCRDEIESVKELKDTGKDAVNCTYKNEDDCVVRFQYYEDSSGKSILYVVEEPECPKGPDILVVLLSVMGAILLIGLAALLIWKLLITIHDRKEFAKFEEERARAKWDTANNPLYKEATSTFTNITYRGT

Row | IC50, platelet aggregation in citrated plasma [1] [µg/mL] | increase (separation) in apparent affinity for GP-IIb/IIIa in low calcium concentration as compared to physiological calcium concentration [2] [fold] | SMILES | difference in apparent binding affinity for GP-IIb/IIIa at low (citrate) versus higher (heparin) calcium concentration, in words [2] | inhibitory activity on platelet aggregation stimulated with ADP, in words [1]
1 | 309 (≈ 294 µM) | – | COc1ccc(C[C@@H]2NC(=O)[C@H](CC(=O)O)NC(=O)CNC(=O)[C@H](C)NC(=O)[C@@H]3CCCN3C(=O)[C@H](CC(N)=O)NC(=O)[C@@H](NC(C)=O)CSSC[C@@H](C(N)=O)NC(=O)[C@H](CCCNC(=N)N)NC2=O)cc1 [SEQ ID NO. 2, Ac-CNPAGD(Y-OMe)RC-NH2] (Ac-CNPAGDY(Me)RC-NH2; disulfide 1-9) | a separation between the apparent binding affinity | –
2 | 43 (≈ 39.3 µM) | 20 | CCCC[C@@H]1NC(=O)[C@@H]2CCCN2C(=O)[C@H](CC(N)=O)NC(=O)[C@@H](NC(C)=O)CSSC[C@@H](C(N)=O)NC(=O)[C@H](CCCNC(=N)N)NC(=O)[C@H](Cc2ccc(OC)cc2)NC(=O)[C@H](CC(=O)O)NC(=O)CNC1=O [SEQ ID NO. 3, Ac-CNP(Nle)GD(Y-OMe)RC-NH2] (Ac-CNP[Nle]GDY(Me)RC-NH2; disulfide 1-9) | – | –
3 | > 370 | – | COc1ccc(C[C@H](NC(=O)[C@H](CC(=O)O)NC(=O)CNC(=O)[C@H](C)NC(=O)[C@@H]2CCCN2C(=O)[C@H](CC(N)=O)NC(=O)[C@H](CS)NC(C)=O)C(=O)N[C@@H](CCCNC(=N)N)C(=O)N[C@@H](CS)C(N)=O)cc1 [SEQ ID NO. 5, Ac-CNPAGD(Y-OMe)RC-NH2] (Ac-CNPAGDY(Me)RC-NH2) | no difference in their apparent affinity for GP-IIb/IIIa at low versus higher calcium concentration | little to no activity
4 | > 370 | – | CCCC[C@H](NC(=O)[C@@H]1CCCN1C(=O)[C@H](CC(N)=O)NC(=O)[C@H](CS)NC(C)=O)C(=O)NCC(=O)N[C@@H](CC(=O)O)C(=O)N[C@@H](Cc1ccc(OC)cc1)C(=O)N[C@@H](CCCNC(=N)N)C(=O)N[C@@H](CS)C(N)=O [SEQ ID NO. 6, Ac-CNP(Nle)GD(Y-OMe)RC-NH2] (Ac-CNP[Nle]GDY(Me)RC-NH2) | no difference in their apparent affinity for GP-IIb/IIIa at low versus higher calcium concentration | little to no activity
5 | 0.2 (≈ 0.176 µM) | 12 | COc1ccc(C[C@@H]2NC(=O)[C@H](CC(=O)O)NC(=O)CNC(=O)[C@H](CCCNC(=N)N)NC(=O)[C@@H]3CCCN3C(=O)[C@H](CC(N)=O)NC(=O)[C@@H](NC(C)=O)CSSC[C@@H](C(N)=O)NC(=O)[C@H](CCCNC(=N)N)NC2=O)cc1 [SEQ ID NO. 8, Ac-CNPRGD(Y-OMe)RC-NH2] | – | –
